Results: patent publication US3978035A, “13-Norleucine-14-desamido motilin, a method for preparing it and an agent containing it” (Max-Planck-Gesellschaft zur Forderung der Wissenschaften …, priority 1973, dated 1976)
Where a SMILES comes first, the peptide text is derived from it. [ ]: non-standard residue; d: D form. Nle = CCCC[C@H](N)C(=O)O

Test: biological activity in comparison with natural motilin
Details: after purification on ion exchangers; relative to naturally occurring motilin (method reference: J. C. Brown et al.)

| Compound | biological activity in comparison with natural motilin |
| --- | --- |
| CCCC[C@H](NC(=O)[C@H](CCCNC(=N)N)NC(=O)[C@H](CCC(N)=O)NC(=O)[C@H](CC(C)C)NC(=O)[C@H](CCC(=O)O)NC(=O)CNC(=O)[C@H](Cc1ccc(O)cc1)NC(=O)[C@@H](NC(=O)[C@H](Cc1ccccc1)NC(=O)[C@@H](NC(=O)[C@@H]1CCCN1C(=O)[C@@H](NC(=O)[C@@H](N)Cc1ccccc1)C(C)C)[C@@H](C)CC)[C@@H](C)O)C(=O)N[C@@H](CCC(=O)O)C(=O)N[C@@H](CCC(=O)O)C(=O)N[C@@H](CCCCN)C(=O)N[C@@H](CCC(=O)O)C(=O)N[C@@H](CCCNC(=N)N)C(=O)N[C@@H](CC(N)=O)C(=O)N[C@@H](CCCCN)C(=O)NCC(=O)N[C@@H](CCC(N)=O)C(=O)O [C1 -fraction] (H-FVPIFTYGELQR[Nle]EEKERNKGQ-OH) | over 90% |
| CCCC[C@H](NC(=O)[C@H](CCCNC(=N)N)NC(=O)[C@H](CCC(N)=O)NC(=O)[C@H](CC(C)C)NC(=O)[C@H](CCC(=O)O)NC(=O)CNC(=O)[C@H](Cc1ccc(O)cc1)NC(=O)[C@@H](NC(=O)[C@H](Cc1ccccc1)NC(=O)[C@@H](NC(=O)[C@@H]1CCCN1C(=O)[C@@H](NC(=O)[C@@H](N)Cc1ccccc1)C(C)C)[C@@H](C)CC)[C@@H](C)O)C(=O)N[C@@H](CCC(=O)O)C(=O)N[C@@H](CCC(=O)O)C(=O)N[C@@H](CCCCN)C(=O)N[C@@H](CCC(=O)O)C(=O)N[C@@H](CCCNC(=N)N)C(=O)N[C@@H](CC(N)=O)C(=O)N[C@@H](CCCCN)C(=O)NCC(=O)N[C@@H](CCC(N)=O)C(=O)O [13-norleucine-14-desamido-motilin] (H-FVPIFTYGELQR[Nle]EEKERNKGQ-OH) | above 90% |
